Entries after “also recorded” stand apart in the source; their conditions may differ. Where no end group is shown, it is not given here.
How the values were obtained:
[1] = tested on: plasmacytoid dendritic cells (pDC); experiment: IFN-α and cytokine production by purified human pDC (ELISA of supernatants); assay type: cell-based; conditions: for pDC activation to produce IFN-α: substance alone added to purified pDC
Text: (§1) PDC from healthy donors were purified from freshly collected buffy coats. Briefly, PBMC were isolated by Ficoll-Hypaque density gradient centrifugation (GE Healthcare, Piscatway, N.J.) followed by positive sorting using anti-BDCA4-conjugated magnetic microbeads (Miltenyi Biotec, Auburn, Calif.). The recovered cells were stained with PE-Cy5-conjugated anti-CD4, APC-conjugated CD11c, and a cocktail of FITC-conjugated anti-CD3, anti-CD14, anti-CD16, anti-CD15, anti-CD20 and anti-CD56 (Lineage-FITC) (BD Pharmingen, San Diego, Calif.). The CD4+CD11c-Lin- (pDC precursors) were isolated by cell sorting. Purity was routinely >99%. PDC (5-10×10^4/well) were cultured in 96-well round-bottom plates in RPMI 1640 (GIBCO, Carlsbad, Calif.) supplemented with 10% FCS (Atlanta Biologicals, Lawrenceville, Ga.). Where indicated, pDC were stimulated with CpGA (1 μM), CpGB (1 μM), R837 (10 ug/ml), IRS (4 uM), non-CpG sequence (4 uM), and different concentrations of LL-37 and of human genomic DNA. To prepare LL-37.DNA complexes, CpGB, huDNA, non-CpG and LL-37 were mixed by inversion and incubated for 30 min at room temperature before being added to the cells.
(§2) Supernatants samples were taken after 18-24 h after addition of the stimuli. Human IFN-α was measured using a human IFN-α ELISA kit (PBL Biomedical Laboratories, New Brunswick, N.J.) according to the company's instructions. IL-6 and TNF-α were detected using a kit for human IL6 and TNF-α (R&D Systems), respectively.

pDC [2] = experiment: pDC viability; assay type: cell-based, human; conditions: not shown
[3] = tested on: LL-37-mediated activation of pDC; experiment: Inhibition of LL-37-mediated IFN-α induction in pDC; assay type: cell-based, human; conditions: pDC stimulated with LL-37 (10 μM) in presence of the substance
Method: (§3) (A) pDC were stimulated with LL-37 (10 μM) in the presence of pertussis toxin (PTX) or KN62 to block the FPRL-1 and the P2X pathway respectively. Furthermore agonistic W peptide and ATP were used to stimulate these pathways on pDC. (B) pDC were stimulated with LL-37 (10 μM) in the presence of increasing concentrations of chloroquine to block the endosomal TLR pathway. (C) PDC were pre-treated DNase I, TLR-9 inhibitor (IRS, 4 μM) or ctrl ODN sequences for 30 min and followed by incubation with LL-37 (10 μM), CpG 2216 (CpGA, 1 μM) or imiquimod (R837,10 μg/ml) for 24 h (A). The culture supernatants were analyzed for IFN-α production by ELISA. One representative experiment of three is shown.
Heparin (an anionic sugar) was preincubated for ½ h with LL-37 before stimulating pDC (thus associating with self-DNA released by dying cells in culture) or before adding genomic human DNA and subsequently stimulating pDC.
as §1, §2

proteinase 3 = biological target: T1, proteinase 3 (Homo sapiens, UniProt P24158); experiment: Cleavage of LL-37 from propeptide hCAP18 in activated neutrophils (Western blot); assay type: cell-based; conditions: pretreatment of neutrophils, PMA activation
T1 construct: endogenous in cells
T1 sequence (P24158 28-248): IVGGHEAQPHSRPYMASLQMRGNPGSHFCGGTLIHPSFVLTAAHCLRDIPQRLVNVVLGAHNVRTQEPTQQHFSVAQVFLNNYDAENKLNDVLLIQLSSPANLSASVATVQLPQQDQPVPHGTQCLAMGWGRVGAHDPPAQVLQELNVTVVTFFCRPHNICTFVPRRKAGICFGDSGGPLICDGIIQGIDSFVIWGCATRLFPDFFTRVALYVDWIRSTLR

pDC [4] = experiment: pDC stimulation by supernatant of activated neutrophils (type I IFN); assay type: cell-based, human; conditions: neutrophils pretreated with inhibitor
Text: (Left panel) IFN-α released by pDC stimulated with NET w/o Pr-3 inhibitors, CpG, w/o Pr-3 inhibitors is used as positive control.
These findings indicate that proteinase 3 inhibitors block the generation of the mature LL-37 peptide, thus inhibiting the LL-37-mediated break of innate tolerance to self-nucleic acids.

human genomic DNA = experiment: Complex formation with DNA (ethidium bromide intercalation, size exclusion HPLC); assay type: binding
Text: (A) Emission spectra of human genomic DNA intercalated with Ethimidium bromide in the presence of increasing doses of LL-37. (B) Size exclusion HPLC of LL-37 alone, mut-LL-37 alone or DNA premixed with LL-37 or mut-37. […] Absorbance scales are different to accommodate the DNA peak.

TLR-9 = biological target: T2, TLR-9 (Homo sapiens, UniProt Q9NR96); experiment: Inhibition of IFN-α induction in pDC by TLR-9 agonist CpG sequences; assay type: cell-based
T2 construct: PDC from healthy donors were purified from freshly collected buffy coats; endogenous in cells; host or cells: primary human pDC sorted from buffy coats of healthy donors
T2 sequence (Q9NR96 26-1032): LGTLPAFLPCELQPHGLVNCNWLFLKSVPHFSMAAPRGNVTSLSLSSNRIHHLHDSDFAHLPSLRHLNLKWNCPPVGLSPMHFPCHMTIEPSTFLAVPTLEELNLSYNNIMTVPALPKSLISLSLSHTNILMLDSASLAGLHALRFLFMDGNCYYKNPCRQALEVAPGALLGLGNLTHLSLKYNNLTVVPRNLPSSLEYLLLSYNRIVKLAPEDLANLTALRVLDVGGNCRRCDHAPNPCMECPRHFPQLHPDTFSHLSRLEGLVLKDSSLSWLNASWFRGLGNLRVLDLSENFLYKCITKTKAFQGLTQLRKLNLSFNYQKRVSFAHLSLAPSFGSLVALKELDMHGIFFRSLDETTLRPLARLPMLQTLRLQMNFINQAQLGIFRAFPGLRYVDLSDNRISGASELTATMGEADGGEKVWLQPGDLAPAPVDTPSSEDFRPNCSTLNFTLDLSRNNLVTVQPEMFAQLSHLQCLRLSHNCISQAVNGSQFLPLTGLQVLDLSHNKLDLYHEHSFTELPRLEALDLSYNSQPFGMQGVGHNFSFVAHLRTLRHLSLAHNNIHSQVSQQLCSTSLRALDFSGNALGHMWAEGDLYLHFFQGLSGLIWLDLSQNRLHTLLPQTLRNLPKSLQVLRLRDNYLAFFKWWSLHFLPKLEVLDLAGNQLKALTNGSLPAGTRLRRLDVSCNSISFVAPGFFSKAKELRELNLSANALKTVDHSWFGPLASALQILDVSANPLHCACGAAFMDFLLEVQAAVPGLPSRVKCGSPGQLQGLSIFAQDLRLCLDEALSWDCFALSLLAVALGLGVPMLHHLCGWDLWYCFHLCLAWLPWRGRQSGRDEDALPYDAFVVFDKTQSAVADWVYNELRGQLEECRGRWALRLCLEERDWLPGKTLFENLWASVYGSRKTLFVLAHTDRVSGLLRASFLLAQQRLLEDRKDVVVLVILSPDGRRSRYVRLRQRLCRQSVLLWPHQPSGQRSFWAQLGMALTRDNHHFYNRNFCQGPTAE
Method: as §3
(§4) PDC from healthy donors were purified from freshly collected buffy coats. Briefly, PBMC were isolated by Ficoll-Hypaque density gradient centrifugation (GE Healthcare, Piscatway, N.J.) followed by positive sorting using anti-BDCA4-conjugated magnetic microbeads (Miltenyi Biotec, Auburn, Calif.). […]
as §2

TLR7 = biological target: T3, TLR7 (Homo sapiens, UniProt Q9NYK1); experiment: Inhibition of IFN-α induction in pDC by TLR7 agonist imiquimod; assay type: cell-based
T3 construct: PDC from healthy donors were purified from freshly collected buffy coats; endogenous in cells; host or cells: primary human pDC sorted from buffy coats of healthy donors
T3 sequence (Q9NYK1 27-1049): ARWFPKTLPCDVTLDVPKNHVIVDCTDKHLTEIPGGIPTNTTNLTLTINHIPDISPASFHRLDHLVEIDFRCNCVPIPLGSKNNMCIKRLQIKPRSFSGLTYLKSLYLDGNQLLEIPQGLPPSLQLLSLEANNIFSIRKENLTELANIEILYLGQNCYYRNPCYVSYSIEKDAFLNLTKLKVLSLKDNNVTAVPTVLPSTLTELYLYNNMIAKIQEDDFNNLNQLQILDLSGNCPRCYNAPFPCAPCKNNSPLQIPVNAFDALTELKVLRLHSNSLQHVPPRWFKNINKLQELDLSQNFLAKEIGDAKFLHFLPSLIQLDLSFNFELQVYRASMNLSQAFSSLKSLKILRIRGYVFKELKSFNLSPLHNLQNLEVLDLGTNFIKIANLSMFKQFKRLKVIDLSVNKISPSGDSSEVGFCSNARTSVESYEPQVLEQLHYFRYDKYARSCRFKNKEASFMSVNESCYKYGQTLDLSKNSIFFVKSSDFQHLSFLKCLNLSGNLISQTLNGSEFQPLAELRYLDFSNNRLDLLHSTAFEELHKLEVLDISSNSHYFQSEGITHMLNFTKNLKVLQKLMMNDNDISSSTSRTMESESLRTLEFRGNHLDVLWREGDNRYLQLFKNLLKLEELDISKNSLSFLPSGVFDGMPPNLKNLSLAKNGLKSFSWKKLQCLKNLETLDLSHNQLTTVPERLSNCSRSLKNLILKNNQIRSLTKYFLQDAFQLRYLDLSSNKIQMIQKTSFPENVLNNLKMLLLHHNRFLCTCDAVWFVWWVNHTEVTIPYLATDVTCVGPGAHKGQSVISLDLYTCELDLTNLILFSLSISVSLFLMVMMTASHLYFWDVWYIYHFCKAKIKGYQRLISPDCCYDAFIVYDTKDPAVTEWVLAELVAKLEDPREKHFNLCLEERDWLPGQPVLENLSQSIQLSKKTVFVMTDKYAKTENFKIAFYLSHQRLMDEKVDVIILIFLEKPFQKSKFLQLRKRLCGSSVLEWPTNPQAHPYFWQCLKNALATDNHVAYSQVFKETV
Method: as §3, §4, §2

## Nc1ncnc2c1ncn2[C@@H]1O[C@H](COP(=O)(O)OP(=O)(O)OP(=O)(O)O)[C@@H](O)[C@H]1O [ATP, Adenosin triphopshate]
[1]
  pDC activation to produce IFN-α: did not result in IFN-α production by pDC

## CCN(CC)CCCC(C)Nc1ccnc2cc(Cl)ccc12 (stereo not drawn) [Chloroquine]
pDC [2]
  Effect on pDC viability: no measurable effect on pDC viability
[3]
  Effect on IFN-α induction by LL-37 in pDC: inhibited LL-37-mediated IFN-α induction in a dose-dependent manner

## CC(C)C[C@H](NC(=O)[C@@H](NC(=O)N[C@@H](Cc1ccccc1)C(=O)O)[C@@H]1CCN=C(N)N1)C(=O)N[C@H](C=O)Cc1ccccc1 [Chymostatin]
Proteinase 3
  Cleavage of the 4 kD LL-37 peptide from hCAP18: can be blocked; also recorded: block the cleavage of LL-37 from its propeptide hCAP
pDC [4]
  Capacity of activated neutrophils to stimulate pDC to produce type I IFNs: abrogated; also recorded: inhibit the activation of pDC by self-DNA released by neutrophils

## CN([C@@H](Cc1ccc(OS(=O)(=O)c2cccc3cnccc23)cc1)C(=O)N1CCN(c2ccccc2)CC1)S(=O)(=O)c1cccc2cnccc12 [KN62, KN-62]
[3]
  Effect on IFN-α induction by LL-37 in pDC: did not inhibit IFN-α induction by LL-37

## DNase I
[3]
  Effect on IFN-α induction by LL-37 in pDC: significantly inhibited

## GGGGGACGATCGTCGGGGGG [CpGA]
[1]
  IFN-α induction by pDC, single stranded form complexed to LL-37: restored
[1]; multimeric complex disrupted
  IFN-α induction by pDC, single stranded form (heat and flash cooling): strongly inhibited

## HBD-3: AMP cultured with pDC at equimolar doses (GIINTLQKYYCRVRGGRCAVLSCLPKEEQIGKCSTRGRKCCRRKK; ends and bridges not checked; cysteine pairing not given here; UniProt P81534 23-67, looked up)
[1]
  pDC activation to produce IFN-α: did not induce pDC activation to produce IFN-α

## LLGDFFAVSKEKIGAEFVRIVQAIKDFLRNLVPRTES [mLL-37]
[1]
  pDC activation to produce IFN-α: complete abrogation of pDC activation
[1]; listed as mutated LL-37 peptide
  pDC activation to produce IFN-α: did not induce IFN-α
Human genomic DNA
  Complex formation with DNA: not able to complex with DNA

## MeOSuc-CMK
Proteinase 3
  Cleavage of the 4 kD LL-37 peptide from hCAP18: can be blocked; also recorded: block the cleavage of LL-37 from its propeptide hCAP
pDC [4]
  Capacity of activated neutrophils to stimulate pDC to produce type I IFNs: abrogated; also recorded: inhibit the activation of pDC by self-DNA released by neutrophils

## Pertussis Toxin [PTX]
[3]
  Effect on IFN-α induction by LL-37 in pDC: did not inhibit IFN-α induction by LL-37

## TCGTCGTTTTGTCGTTTTGTCGTT [phophodiesteric CpG-B]
[1]
  IFN-α production by pDC stimulated with nucleic acid alone or combined with LL-37, as labelled: unable to induce IFN-α

## TCGTCGTTTTGTCGTTTTGTCGTT [phosphothiorate CpG-B]
[1]
  IFN-α production by pDC stimulated with nucleic acid alone or combined with LL-37, as labelled: induced significant levels of IFN-α

## TTTAGGGTTAGGGTTAGGGTTAGGG (listed as DNA, chemistry not given here) [IRS]
[3]
  Effect on IFN-α induction by LL-37 in pDC: inhibited pDC activation to produce IFN-α
TLR-9
  Effect on IFN-α induction by TLR-9 agonist CpG sequences in pDC: block IFN-α induction by TLR-9 agonist CpG-sequences
TLR7
  Effect on IFN-α induction by TLR7 agonist imiquimod in pDC: not TLR7 agonist imiquimod

## WKYMV-peptide [W peptide]
[1]
  pDC activation to produce IFN-α: did not result in IFN-α production by pDC

## heparin
[3]
  Effect on IFN-α induction by LL-37 in pDC: completely abrogated; also recorded: inhibits the ability of LL-37 to induce IFN-α

B1: S100-7: AMP cultured with pDC at equimolar doses (protein, UniProt P31151 2-101, looked up)
Protein S100-A7: SNTQAERSIIGMIDMFHKYTRRDDKIEKPSLLTMMKENFPNFLSACDKKGTNYLADVFEKKDKNEDKKIDFSEFLSLLGDIATDYHKQSHGAAPCSGGSQ
[1]
  pDC activation to produce IFN-α: did not induce pDC activation to produce IFN-α
